# Assay results as given in patent publication US7973047B2, “Beta-Secretase modulators and methods of use” (Amgen Inc., priority 2010, dated 2011).
# Tested on: Aβ40 in conditioned medium of cells stably expressing Amyloid Precursor Protein (APP)
# Test: BACE cell-based assay: Aβ40 in conditioned medium by sandwich ELISA
# Details: cell based assay data of Table 4; unit inferred; read-out: Cell Assay
# In short: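 APP-stable cells grown 24 h in DMEM/10% FBS, then exposed to compounds for 24 h in a 10-point dose series starting at 100 or 10 μM, 0.1% DMSO final. Medium Aβ40 measured by pAb40/biotinylated 6E10 sandwich ELISA with Europium time-resolved fluorescence; IC50 from percent inhibition.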
row,IC50,SMILES
1,152 nM,"CC(=O)N[C@@H](Cc1ccnc(C(F)(F)F)n1)[C@H](O)CN[C@H]1CC2(CCC2)Oc2ncc(CC(C)(C)C)cc21 [compound 647, N-((1S,2R)-3-(((4′S)-6′-(2,2-dimethylpropyl)-3′,4′-dihydrospiro[cyclobutane-1,2′-pyrano[2,3-b]pyridin]-4′-yl)amino)-2-hydroxy-1-((2-(trifluoromethyl)-4-pyrimidinyl)methyl)propyl)acetamide]"
2,5.49 nM,CC(=O)N[C@@H](Cc1cc(F)cc(F)c1)[C@H](O)CN[C@H]1CC(C)(C)Nc2ccc(CC(C)(C)C)cc21 [compound 693]
3,52.3 nM,CC(=O)N[C@@H](Cc1ccc(F)cc1)[C@H](O)CN[C@H]1CC2(CCC2)Oc2c1cc(CC(C)(C)C)nc2N(C)C [compound 588]
4,29.4 nM,"CC(=O)N[C@@H](Cc1cccc(F)c1)[C@H](O)CN[C@H]1CC2(CCC2)Nc2ccc(CC(C)(C)C)cc21 [compound 561, N-((1S,2R)-3-(((4′S)-6′-(2,2-dimethylpropyl)-3′,4′-dihydro-1′H-spiro[cyclobutane-1,2′-quinolin]-4′-yl)amino)-1-((3-fluorophenyl)methyl)-2-hydroxypropyl)acetamide]"
5,20.5 nM,CC(=O)N[C@@H](Cc1ccc(F)cc1)[C@H](O)CN[C@H]1C[C@@]2(CCOC2)Oc2ncc(CC(C)(C)C)cc21 [compound 671]
6,24.8 nM,"CC(=O)N[C@@H](Cc1ccc(F)cc1)[C@H](O)CN[C@H]1C[C@]2(C[C@H](C)C2)Oc2ncc(CC(C)C)cc21 [compound 615, N-((1S,2R)-1-((4-fluorophenyl)methyl)-2-hydroxy-3-(((1s,3R,4′S)-3-methyl-6′-(2-methylpropyl)-3′,4′-dihydrospiro[cyclobutane-1,2′-pyrano[2,3-b]pyridin]-4′-yl)amino)propyl)acetamide]"
7,936 nM,COC(=O)N[C@@H](Cc1ccc(Cl)cc1)[C@H](O)CN[C@H]1CC2(CCC2)Oc2ncc(CC(C)(C)C)cc21 [compound 627]
8,1.24 nM,CC(=O)N[C@@H](Cc1cccc(Cl)c1)[C@H](O)CN[C@H]1CC2(CCC2)Oc2ncc(CC(C)(C)C)cc21 [compound 702]
9,23.6 nM,CC(=O)N[C@@H](Cc1cccc(F)c1)[C@H](O)CN[C@H]1CC2(CCC2)Oc2c1cc(CC(C)(C)C)nc2N(C)C [compound 593]

# Same assay, conditions: cell based assay data, Table 4; unit inferred; read-out: Cell Assay
row,IC50,SMILES
1,452 nM,CC(=O)N[C@@H](Cc1cc(F)cc(F)c1)[C@H](O)CN[C@H]1CC2(CCC2)Oc2cc(F)c(NC3CCOCC3)cc21 [compound 806]
2,33.1 nM,CC(=O)N[C@@H](Cc1cc(F)cc(F)c1)[C@H](O)CN[C@H]1CC2(CCC2)Oc2ncc(Br)cc21 [compound 745]
3,78.7 nM,"CC(=O)N[C@@H](CC1CCC1)[C@H](O)CN[C@H]1CC2(CCC2)Oc2ncc(CC(C)(C)C)cc21 [compound 809, N-((1S,2R)-1-(cyclobutylmethyl)-3-(((4′S)-6′-(2,2-dimethylpropyl)-3′,4′-dihydrospiro[cyclobutane-1,2′-pyrano[2,3-b]pyridin]-4′-yl)amino)-2-hydroxypropyl)acetamide]"
4,15.8 nM,"CC(=O)N[C@@H](Cc1ccc(F)cc1)[C@H](O)CN[C@H]1CC2(CC(C)C2)Oc2ncc(CC(C)(C)C)cc21 (stereo partly drawn) [compound 766, N-((1S,2R)-3-(((4′S)-6′-(2,2-dimethylpropyl)-3-methyl-3′,4′-dihydrospiro[cyclobutane-1,2′-pyrano[2,3-b]pyridin]-4′-yl)amino)-1-((4-fluorophenyl)methyl)-2-hydroxypropyl)acetamide]"
5,212 nM,CC(=O)N[C@@H](Cc1cc(F)cc(F)c1)[C@H](O)CN[C@H]1CC2(CCC2)Oc2c1cc(Cl)cc2-n1cnc2ccccc21 [compound 775]
6,20.3 nM,CC(=O)N[C@@H](Cc1cc(F)cc(Cl)c1)[C@H](O)CN[C@H]1CC2(CCC2)Oc2cnc(CC(C)(C)C)cc21 [compound 750]
7,34.5 nM,CC(=O)N[C@@H](Cc1ccc(Br)cc1)[C@H](O)CN[C@H]1CC2(CCC2)Oc2ncc(CC(C)(C)C)cc21 [compound 872]
8,236 nM,CC(=O)N[C@@H](Cc1ccc(F)cc1)[C@H](O)CN[C@H]1CC2(CCC2)Oc2ncc(CC(C)(C)CO)cc21 [compound 878]
